The values below come from US10473662B2, “Diagnostic and prognostic markers for cancer” (Wake Forest University Health Sciences, priority 2009, dated 2019).

One assay concerns HME cells. The assay is described as follows: Labile iron pool assay (calcein) in hepcidin-treated cells. It counts as cell-based, human. The note with it: 700 nM hepcidin or vehicle control (FIG. 3B). The procedure:
(§1) Human mammary epithelial (HME) cells were obtained from Lonza (Rockland, Me.). HME cells transduced with h-TERT, SV40 T antigen and high levels of H-ras are termed R5 cells in this report and were a generous gift from the laboratory of Dr. Robert Weinberg, Boston, Mass. (14). All cells were maintained at 37° C. in a humidified atmosphere containing 5% CO2. Cells were maintained in Dulbecco's […] (DMEM-F12) medium (Gibco/BRL [Grand Island, N.Y.]) supplemented with L-glutamine, 10 μg/ml insulin, 10 ng/ml human epidermal growth factor, and 0.5 μg/ml hydrocortisone for 24 hrs prior to harvest. MCF7 and MCF10A cell lines were obtained from the Wake Forest University Comprehensive Cancer Center Tissue Culture Core facility. SUM149 and SUM102 cell lines were a generous gift of Dr. I. Berquin, Wake Forest University School of Medicine. […]
The cellular labile iron pool (LIP) was measured with the fluorescent metallosensor calcein, essentially as described (20). […] Fluorescence was measured at 485 nm excitation and 535 nm emission with a fluorescence plate reader (fmax Fluorescence Microplate Reader, Molecular Devices). After the fluorescence signal was stabilized, SIH was added to remove iron from calcein, causing dequenching. The change in fluorescence following the addition of SIH (ΔF) was used as a measure of the labile iron pool.

The subject of the next assay is ferritin H. The assay can be described thus: Western blot of ferritin H in hepcidin-treated cells. The following applies: HME cells, 300 nM or 700 nM hepcidin for 6 hours (FIG. 3C). The assay is classed as cell-based, human. As to the method: as §1, with “facility.” for “facility. SUM149 and SUM102 cell lines were a generous gift of Dr. I. Berquin, Wake Forest University School of Medicine.”
(§2) Cells were washed once in phosphate-buffered saline (PBS) and scraped. […] Total protein concentrations were determined using BCA reagent (Pierce). […] Ferritin H was detected as previously described (49). Ferroportin was detected using anti-ferroportin-1 antibody (MTP-1, Alpha Diagnostics) followed by horseradish peroxidase conjugated goat anti-rabbit secondary antibody (Bio-Rad). […] Prohepcidin was detected using a rabbit polyclonal antibody (Hepcidin-25 antibody, ab75883, Abcam) followed by horseradish peroxidase conjugated goat anti-rabbit secondary antibody (Bio-Rad). […]
A general note: Immunoblotting shows a protein as a band on a membrane.

A further assay concerns the target T1, ferroportin (Homo sapiens, UniProt Q9NP59).
T1 construct: endogenous in cells; host or cells: primary human mammary epithelial (HME) cells (Lonza)
T1 sequence (Q9NP59 1-571): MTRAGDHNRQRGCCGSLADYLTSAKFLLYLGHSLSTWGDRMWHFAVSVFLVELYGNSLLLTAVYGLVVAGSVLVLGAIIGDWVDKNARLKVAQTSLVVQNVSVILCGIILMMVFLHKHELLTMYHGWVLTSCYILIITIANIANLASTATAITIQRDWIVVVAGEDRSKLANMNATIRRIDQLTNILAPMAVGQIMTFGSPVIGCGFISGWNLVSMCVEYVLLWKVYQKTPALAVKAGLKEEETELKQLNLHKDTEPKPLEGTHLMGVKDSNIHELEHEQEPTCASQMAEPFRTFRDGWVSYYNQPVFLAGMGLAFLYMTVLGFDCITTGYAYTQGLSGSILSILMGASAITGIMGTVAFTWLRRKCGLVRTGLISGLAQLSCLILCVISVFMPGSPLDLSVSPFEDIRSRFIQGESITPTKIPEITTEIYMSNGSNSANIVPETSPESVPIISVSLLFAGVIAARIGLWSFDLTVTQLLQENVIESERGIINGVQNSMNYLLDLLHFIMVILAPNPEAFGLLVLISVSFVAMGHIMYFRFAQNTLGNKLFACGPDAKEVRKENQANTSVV
The assay can be described thus: Western blot of ferroportin in hepcidin-treated cells. The assay is classed as cell-based. The note with it: HME cells, 300 or 700 nM hepcidin for 6 hours (FIG. 3D). As to the method:
as §1, with “facility.” for “facility. SUM149 and SUM102 cell lines were a generous gift of Dr. I. Berquin, Wake Forest University School of Medicine.”
as §2

In the case of “Hepcidin: Peptide hormone that binds ferroportin and triggers its degradation; obtained from Peptides International, dissolved in water”, the labile iron pool entry in the assay with HME cells is recorded as “increases the labile iron pool”. Besides, the “levels of ferritin protein (ferritin H, Western blotting)” value in the assay on ferritin H is on record as “increases levels of ferritin protein”. In addition, the “ferroportin protein (Western blotting)” value with ferroportin is recorded as “Ferroportin is degraded”.
